Data reported in patent US12559474B2, “Triazine derivatives having virus replication inhibitory activity and pharmaceutical composition comprising the same” (priority 2021, dated 2026).
Where two headings read alike, the source gives them in different places.

Assays:
[1] = system: SARS-CoV-2; assay: microbe, parasite or virus in culture; assay type: cell-based; conditions: Severe acute respiratory syndrome coronavirus 2, VeroE6/TMPRSS2, 72 h, 50% SARS-CoV-2 infected cell death inhibitory concentration, VeroE6/TMPRSS2 cells, 3 days culture
[2] = target: SARS-CoV-2 3CL protease (Severe acute respiratory syndrome coronavirus 2, UniProt P0DTD1); assay: biochemical; conditions: 50% SARS-CoV-2 3CL protease inhibitory concentration, read-out: IC50

Row | SMILES | EC50 ([1]; class symbols) [µM] | IC50 ([2]; given as class symbols) [µM] | EC50 ([1]; CellTiter-Glo 2.0) [µM] | IC50 ([2]; RapidFire MS) [µM]
1 | Cc1cncc(-n2c(=O)nc(Nc3cc4sc(C)nc4cc3C)n(Cc3ccc(F)c(C#N)c3)c2=O)c1 [II-0191] | < 1 | < 0.1 | – | –
2 | Cn1cc2cc(Nc3nc(=O)n(Cc4ccccn4)c(=O)n3Cc3cc(F)c(F)cc3F)c(Cl)cc2n1 [II-0251] | < 1 | < 0.1 | – | –
3 | O=c1[nH]cccc1Cn1c(=O)nc(Nc2cc3cn(CC(F)(F)F)nc3cc2Cl)n(Cc2cc(F)c(F)c(F)c2)c1=O [II-0505] | 1 to 10 | < 0.1 | – | –
4 | COc1ccc(Nc2nc(=O)n(Cc3ccc[nH]c3=O)c(=O)n2Cc2cc(F)c(F)c(F)c2)c(OC)c1 [Compound I-0042] | 1 to 10 | < 0.1 | – | –
5 | Cc1c2cc(Nc3nc(=O)n(Cc4ncn(C)n4)c(=O)n3Cc3cc(F)c(F)c(F)c3)c(Cl)cc2nn1C [II-0452] | 1 to 10 | < 0.1 | – | –
6 | Cn1cnc(Cn2c(=O)nc(Nc3cc4cn(CCO)nc4cc3Cl)n(Cc3cc(Cl)c(F)cc3F)c2=O)n1 [II-0300] | 1 to 10 | < 0.1 | – | –
7 | Cc1cncc(-n2c(=O)nc(Nc3cc4cn(C)nc4cc3Cl)n(Cc3cc(C#N)ccc3F)c2=O)c1 [II-0301] | < 1 | < 0.1 | – | –
8 | Cc1nc2cc(C)c(Nc3nc(=O)n(Cc4ccc[nH]c4=O)c(=O)n3Cc3cc(F)c(F)c(F)c3)cc2s1 [Compound I-0116] | 1 to 10 | < 0.1 | – | –
9 | O=c1[nH]cccc1Cn1c(=O)nc(Nc2cc3cn(CCO)nc3cc2Cl)n(Cc2cc(F)c(F)c(F)c2)c1=O [Compound I-0281] | – | – | 4.18 | 0.0038
10 | Cc1ccc(C#N)cc1Cn1c(Nc2ccc3nn(C)cc3c2)nc(=O)n(-c2cncc(Cl)c2)c1=O [II-0347] | – | – | 0.19 | 0.007
11 | Cc1cncc(-n2c(=O)nc(Nc3cc4oc(C)nc4cc3F)n(Cc3ccc(F)c(C#N)c3)c2=O)c1 [II-0107] | 1 to 10 | < 0.1 | – | –
12 | CCn1cc2cc(Nc3nc(=O)n(-c4cncc(C)c4)c(=O)n3Cc3cc(C#N)ccc3C)c(Cl)cc2n1 [II-0493] | – | – | 0.068 | 0.0013
13 | CN(C)C(=O)c1ccc(Cn2c(=O)nc(Nc3cc4cn(CC(F)F)nc4cc3Cl)n(Cc3cc(F)c(F)c(F)c3)c2=O)c(=O)[nH]1 [Compound I-0066] | 1 to 10 | < 0.1 | – | –
14 | Cn1cnc(Cn2c(=O)nc(Nc3cc4cn(CC5CCO5)nc4cc3Cl)n(Cc3cc(Cl)c(F)cc3F)c2=O)n1 (racemic) [II-0408] | 1 to 10 | < 0.1 | – | –
15 | Cc1cncc(-n2c(=O)nc(Nc3cc4cn(C)nc4cc3Cl)n(Cc3cc(F)c(F)cc3Cc3ccccc3)c2=O)c1 [II-0094] | 1 to 10 | < 0.1 | – | –
16 | CS(=O)(=O)c1ccc(Nc2nc(=O)n(Cc3ccc[nH]c3=O)c(=O)n2Cc2cc(F)c(F)c(F)c2)cc1 [Compound I-0033] | < 1 | 1 to 10 | – | 5.6
17 | C#Cc1cncc(-n2c(=O)nc(Nc3ccc(OC)cc3)n(Cc3cc(F)c(F)c(F)c3)c2=O)c1 [II-0604] | – | – | 9.76 | 0.47
18 | COc1ccc(Nc2nc(=O)n(-c3cncc4ccccc34)c(=O)n2Cc2cc(F)c(F)c(C#N)c2)cc1 [Compound I-0480] | – | – | 0.0726 | 0.0065
19 | Cc1cncc(-n2c(=O)nc(Nc3cc4cn(C)nc4cc3F)n(Cc3cc(C#N)c(F)cc3Cl)c2=O)c1 [II-0053] | < 1 | < 0.1 | – | –

Row | SMILES | EC50 ([1]; class symbols) [µM] | IC50 ([2]; given as class symbols) [µM] | EC50 ([1]; CellTiter-Glo 2.0) [µM] | IC50 ([2]; RapidFire MS) [µM]
20 | COc1ccc(Nc2nc(=O)n(Cc3ncc(C)s3)c(=O)n2Cc2cc(F)c(F)c(F)c2)cc1 [Compound I-0339] | 1 to 10 | 0.1 to 1 | 8 | 0.61
21 | Cc1nc2cc(Cl)c(Nc3nc(=O)n(Cc4ccc[nH]c4=O)c(=O)n3Cc3cc(F)c(F)c(F)c3)cc2s1 [Compound I-0370] | 1 to 10 | < 0.1 | – | –
22 | CN(C)C(=O)c1ccc(Cn2c(=O)nc(Nc3cc4c(cc3Cl)OCC4)n(Cc3cc(F)c(F)c(F)c3)c2=O)c(=O)[nH]1 [Compound I-0064] | 1 to 10 | < 0.1 | – | –
23 | Cn1cc2cc(Nc3nc(=O)n(Cc4ccc[nH]c4=O)c(=O)n3Cc3cc(F)c(F)c(F)c3)c(Cl)cc2n1 [Compound I-0436] | < 1 | < 0.1 | – | –
24 | Cn1cnc(Cn2c(=O)nc(Nc3cc4cn(C)nc4cc3Cl)n(Cc3cccc(F)c3Cl)c2=O)n1 [II-0214] | 1 to 10 | < 0.1 | – | –
25 | COc1ccc(Nc2nc(=O)n(-c3cncc(C)c3)c(=O)n2Cc2ccc(F)c(C#N)c2)c(Br)c1 [II-0174] | < 1 | < 0.1 | – | –
26 | COc1ccc(Nc2nc(=O)n(Cc3ccc[nH]c3=O)c(=O)n2Cc2cc(F)c(F)c(F)c2F)cc1 [Compound I-0256] | 1 to 10 | < 0.1 | – | –
27 | Cc1cc(Cn2cc3cc(Nc4nc(=O)n(Cc5ccc[nH]c5=O)c(=O)n4Cc4cc(F)c(F)c(F)c4)c(Cl)cc3n2)no1 [II-0348] | 1 to 10 | < 0.1 | – | –
28 | COC(=O)Nc1nc2cc(Cl)c(Nc3nc(=O)n(-c4cncc(C)c4)c(=O)n3Cc3cc(Cl)c(F)cn3)cc2s1 [II-0079] | < 1 | < 0.1 | – | –
29 | Cc1cncc(-n2c(=O)nc(Nc3cc4c(cc3F)nc(C)n4C)n(Cc3ccc(F)c(C#N)c3)c2=O)c1 [II-0353] | 1 to 10 | < 0.1 | – | –
30 | Cn1cnc(Cn2c(=O)nc(Nc3cc4cn(CC(C)(C)O)nc4cc3Cl)n(Cc3cc(Cl)c(F)cc3F)c2=O)n1 [II-0302] | 1 to 10 | < 0.1 | – | –
31 | COc1ccc(Nc2nc(=O)n(-c3cncc4ccccc34)c(=O)n2Cc2ccc(F)c(C#N)c2)c(C)c1 [II-0169] | < 1 | < 0.1 | – | –
32 | Cc1cncc(-n2c(=O)nc(Nc3ccc4nc(NCC(F)(F)F)sc4c3)n(Cc3ccc(F)c(C#N)c3)c2=O)c1 [II-0298] | 1 to 10 | < 0.1 | – | –
33 | Cn1cc2cc(Nc3nc(=O)n(-c4cncc(N)c4)c(=O)n3Cc3cc(Cl)c(F)cc3F)c(Cl)cc2n1 [II-0381] | < 1 | < 0.1 | – | –
34 | Cc1cncc(-n2c(=O)nc(Nc3cc4cn(CC(F)F)nc4cc3Cl)n(Cc3cc(F)c(F)c(C#N)c3)c2=O)c1 [II-0568] | – | – | 0.132 | 0.0021
35 | Cc1cncc(-n2c(=O)nc(Nc3cc4c(cc3Cl)nc3n4CCN3)n(Cc3ccc(F)c(C#N)c3)c2=O)c1 [II-0407] | – | – | 15 | 0.0038
36 | Cc1cncc(-n2c(=O)nc(Nc3cc4c(cc3Cl)OCCC4)n(Cc3ccc(F)c(C#N)c3)c2=O)c1 [II-0144] | < 1 | < 0.1 | – | –
37 | Cc1cncc(-n2c(=O)nc(Nc3cc4oc(C)nc4cc3C)n(Cc3ccc(F)c(C#N)c3)c2=O)c1 [II-0110] | < 1 | < 0.1 | – | –
38 | Cn1cnc(Cn2c(=O)nc(Nc3cc4cn(C)nc4cc3Cl)n(Cc3cc(F)cc(Cl)c3)c2=O)n1 [II-0051] | 1 to 10 | < 0.1 | – | –

Row | SMILES | EC50 ([1]; class symbols) [µM] | IC50 ([2]; given as class symbols) [µM] | EC50 ([1]; CellTiter-Glo 2.0) [µM] | IC50 ([2]; RapidFire MS) [µM]
39 | COc1ccc(Nc2nc(=O)n(-c3cncc4ccccc34)c(=O)n2Cc2ccc(F)c(C#N)c2)cc1 [Compound I-0377] | – | – | 0.0729 | 0.008
40 | Cn1cc2cc(Nc3nc(=O)n(Cc4cc5ccsc5[nH]c4=O)c(=O)n3Cc3ccc(F)c(C#N)c3)c(Cl)cc2n1 [II-0008] | 1 to 10 | < 0.1 | – | –
41 | O=c1nc(Nc2ccc3nn(CC(F)F)cc3c2)n(Cc2cc(F)c(F)c(F)c2)c(=O)n1-c1cncc2ccccc12 [Compound I-0472] | < 1 | < 0.1 | – | –
42 | Cn1cc2cc(Nc3nc(=O)n(-c4cncc(Cl)c4)c(=O)n3Cc3cc(Cl)c(F)cc3F)ccc2n1 [II-0576] | – | – | 0.53 | 0.017
43 | N#Cc1cc(Cn2c(Nc3ccc4c(c3)CCO4)nc(=O)n(-c3cncc(F)c3)c2=O)ccc1F [Compound I-0350] | < 1 | < 0.1 | – | –
44 | C[C@H](O)Cn1cc2cc(Nc3nc(=O)n(Cc4ccc[nH]c4=O)c(=O)n3Cc3cc(F)c(F)c(F)c3)c(Cl)cc2n1 [Compound I-0424] | 1 to 10 | < 0.1 | – | –
45 | Cn1cc2cc(Nc3nc(=O)n(-c4cnc5ccccn45)c(=O)n3Cc3cc(F)c(F)c(Cl)c3)c(Cl)cc2n1 [II-0490] | – | – | 8.7 | 0.083
46 | Cn1cc2cc(Nc3nc(=O)n(Cc4cc(Cl)c[nH]c4=O)c(=O)n3Cc3ccc(F)c(C#N)c3)c(Cl)cc2n1 [Compound I-0359] | 1 to 10 | < 0.1 | – | –
47 | N#Cc1cc(Cn2c(Nc3cc4c(cc3Cl)OCC4)nc(=O)n(Cc3cc(Cl)c[nH]c3=O)c2=O)ccc1F [Compound I-0408] | 1 to 10 | < 0.1 | – | –
48 | Cc1cncc(-n2c(=O)nc(Nc3ccc4nn(C)cc4c3)n(Cc3cc(F)c(F)c(C#N)c3)c2=O)c1 [II-0573] | – | – | 0.34 | 0.0061
49 | Cc1cncc(-n2c(=O)nc(Nc3cc4cn(C)nc4cc3Cl)n(Cc3cc(C#N)ccc3CCC(C)(C)O)c2=O)c1 [II-0024] | 1 to 10 | < 0.1 | – | –
50 | COc1ccc(Nc2nc(=O)n(Cc3ccc[nH]c3=O)c(=O)n2Cc2cc(F)c(F)c(Cl)c2)c(Cl)c1 [Compound I-0255] | < 1 | < 0.1 | – | –
51 | Cc1ccc(Cl)cc1Cn1c(Nc2cc3cn(C)nc3cc2Cl)nc(=O)n(Cc2ncn(C)n2)c1=O [II-0052] | 1 to 10 | < 0.1 | – | –
52 | Cc1nc2cc(Cl)c(Nc3nc(=O)n(Cc4ccc[nH]c4=O)c(=O)n3Cc3ccc(F)c(Cl)c3)cc2n1C [Compound I-0007] | 1 to 10 | < 0.1 | – | –
53 | Cn1cc2cc(Nc3nc(=O)n(Cc4ncccn4)c(=O)n3Cc3cc(F)c(F)cc3F)c(Cl)cc2n1 [II-0245] | < 1 | < 0.1 | – | –
54 | Cc1cncc(-n2c(=O)nc(Nc3cc4cn(C)nc4cc3Cl)n(Cc3cccc(F)c3C)c2=O)c1 [II-0171] | < 1 | < 0.1 | – | –
55 | Cc1cncc(-n2c(=O)nc(Nc3cc4cn(C)nc4cc3Cl)n(Cc3ccc(F)c(C4CC4)c3)c2=O)c1 [II-0595] | – | – | 8.22 | 0.53
56 | Cc1cnc(Cn2c(=O)nc(Nc3cc4cn(C)nc4cc3Cl)n(Cc3cc(F)c(F)cc3F)c2=O)nc1 [II-0425] | – | – | 5.85 | 0.26
